# Starred links: 1 amine or outer side, 2 acyl side, 3 side chain; linkers in the order of their positions; H or OH if unused. Positions of bridges follow the written chain, without caps; N, C: chain ends. Residues, ends and D or L forms follow the SMILES beside them. *: point of attachment. C20 diacid = O=C(O)CCCCCCCCCCCCCCCCCCC(=O)*; γGlu = O=C(O)[C@H](CCC(=O)[*:2])N[*:1]
# System: ad libitum fed rat
# Assay: Assay (I) efficacy testing on appetite (food intake) using an ad libitum fed rat model
# Assay type: in vivo, Sprague Dawley (SD) rats
# Details: 3 nmol/kg
# Description: In the following examples reference is made to the following Assays: • Assay (I)—Experimental protocol for efficacy testing on appetite using an ad libitum fed rat model • ASSAY (II)a—Functional assay—Human calcitonin and amylin receptor assay • ASSAY (II)b—Functional assay—Rat calcitonin and rat amylin receptor assays • ASSAY (III)—ThT fibrillation assays for the assessment of physical stability of protein formulations • ASSAY (IV)—Determination of solubility • ASSAY (V)—Determination of binding to the human amylin receptor • ASSAY (VI)—Determination of the binding to the rat amylin receptor • ASSAY (VII)—Determination of binding to the human calcitonin receptor • ASSAY (VIII)—Determination of binding to the rat calcitonin receptor • ASSAY (IX)—pK—Determination of T½ in mini-pig • ASSAY (X)—pK—Determination of T½ in rat Assay (I)—Experimental protocol for Efficacy Testing on Appetite Using an Ad Libitum Fed Rat Model
# Sprague Dawley (SD) rats from Taconic Europe, Denmark are used for the experiments. The rats have a body weight 200-250 g at the start of experiment. The rats arrive at least 10-14 days before start of experiment to allow acclimatization to experimental settings. During this period the animals are handled at least 2 times. After arrival rats are housed individually for one week in a reversed light/dark phase (meaning that lights are off during daytime and on during nighttime) […]. Since rats are normally active and eat their major part of their daily food intake during the dark period, rats are dosed in the morning right before lights are turned off. This set-up results in the lowest data variation and highest test sensitivity. The experiment is conducted in the rats' home cages and rats have free access to food and water throughout the acclimatization period and the experiment period. Each dose of derivative is tested in a group of 5-8 rats. A vehicle group of 6-8 rats is included in each set of testing. Rats are dosed once according to body weight with a 0.01-3 mg/kg solution administered intraperitoneally (ip), orally (po) or subcutaneously (sc). The time of dosing is recorded for each group. After dosing, the rats are returned to their home cages, where they then have access to food and water. The food consumption is recorded individually continuously by on-line registration or manually every hour for 7 hours, and then after 24 h and sometimes 48 h. At the end of the experimental session, the animals are euthanised.
# The individual data are recorded in Microsoft excel sheets. Outliers are excluded after applying the Grubbs statistical evaluation test for outliers, and the result is presented graphically using the GraphPad Prism program.
smiles,measurement,value
"CC[C@H](C)[C@H](NC(=O)[C@@H]1CCCN1C(=O)CNC(=O)[C@H](Cc1ccccc1)NC(=O)[C@H](CC(N)=O)NC(=O)[C@H](CC(N)=O)NC(=O)[C@H](CO)NC(=O)[C@H](CO)NC(=O)[C@H](Cc1c[nH]cn1)NC(=O)[C@H](Cc1c[nH]cn1)NC(=O)[C@H](CC(C)C)NC(=O)[C@H](Cc1ccccc1)NC(=O)[C@H](CCC(=O)O)NC(=O)[C@H](C)NC(=O)[C@H](CC(C)C)NC(=O)[C@H](CCCNC(=N)N)NC(=O)[C@H](CCC(N)=O)NC(=O)[C@@H](NC(=O)[C@H](C)NC(=O)[C@@H]1CSSC[C@H](NC(=O)[C@H](Cc2c[nH]cn2)NC(=O)CC[C@H](NC(=O)CCCCCCCCCCCCCCCCCCC(=O)O)C(=O)O)C(=O)N[C@@H](CC(N)=O)C(=O)N[C@@H]([C@@H](C)O)C(=O)N[C@@H](C)C(=O)N[C@@H]([C@@H](C)O)C(=O)N1)[C@@H](C)O)C(=O)N[C@@H](CC(C)C)C(=O)N1CCC[C@H]1C(=O)N1CCC[C@H]1C(=O)N[C@H](C(=O)N[C@@H](CC(N)=O)C(=O)N[C@H](C(=O)NCC(=O)N[C@@H](CO)C(=O)N[C@@H](CC(N)=O)C(=O)N[C@H](C(=O)N[C@@H](Cc1ccc(O)cc1)C(N)=O)[C@@H](C)O)C(C)C)[C@@H](C)O [Example 18, N-alpha-[(S)-4-Carboxy-4-(19-carboxynonadecanoylamino)butyryl]-[His1,Glu14,His17]-pramlintide] ({C20 diacid-γGlu}-HCNTATCATQRLAEFLHHSSNNFGPILPPTNVGSNTY-NH2; disulfide 2-7)",Food intake reduction 0-24 h 3 nmol/kg (%),40%
same,Food intake reduction 24-48 h 3 nmol/kg (%),32%
"CC[C@H](C)[C@H](NC(=O)[C@@H]1CCCN1C(=O)CNC(=O)[C@H](Cc1ccccc1)NC(=O)[C@H](CC(N)=O)NC(=O)[C@H](CC(N)=O)NC(=O)[C@H](CO)NC(=O)[C@H](CO)NC(=O)[C@H](Cc1c[nH]cn1)NC(=O)[C@H](Cc1c[nH]cn1)NC(=O)[C@H](CC(C)C)NC(=O)[C@H](Cc1ccccc1)NC(=O)[C@H](CCC(=O)O)NC(=O)[C@H](C)NC(=O)[C@H](CC(C)C)NC(=O)[C@H](CCCNC(=N)N)NC(=O)[C@H](CCC(N)=O)NC(=O)[C@@H](NC(=O)[C@H](C)NC(=O)[C@@H]1CSSC[C@H](NC(=O)[C@H](CCC(=O)O)NC(=O)CC[C@H](NC(=O)CCCCCCCCCCCCCCCCCCC(=O)O)C(=O)O)C(=O)N[C@@H](CC(N)=O)C(=O)N[C@@H]([C@@H](C)O)C(=O)N[C@@H](C)C(=O)N[C@@H]([C@@H](C)O)C(=O)N1)[C@@H](C)O)C(=O)N[C@@H](CC(C)C)C(=O)N1CCC[C@H]1C(=O)N1CCC[C@H]1C(=O)N[C@H](C(=O)N[C@@H](CC(N)=O)C(=O)N[C@H](C(=O)NCC(=O)N[C@@H](CO)C(=O)N[C@@H](CC(N)=O)C(=O)N[C@H](C(=O)N[C@@H](Cc1ccc(O)cc1)C(N)=O)[C@@H](C)O)C(C)C)[C@@H](C)O [Example 29, N-alpha-[(S)-4-Carboxy-4-(19-carboxynonadecanoylamino)butyryl]-[Glu1,Glu14,His17]-pramlintide] ({C20 diacid-γGlu}-ECNTATCATQRLAEFLHHSSNNFGPILPPTNVGSNTY-NH2; disulfide 2-7 (inferred); C-terminus assumed)",Food intake reduction 0-24 h 3 nmol/kg (%),15%
same,Food intake reduction 24-48 h 3 nmol/kg (%),5%
"CC[C@H](C)[C@H](NC(=O)[C@@H]1CCCN1C(=O)CNC(=O)[C@H](Cc1ccccc1)NC(=O)[C@H](CC(N)=O)NC(=O)[C@H](CC(N)=O)NC(=O)[C@H](CO)NC(=O)[C@H](CO)NC(=O)[C@H](Cc1c[nH]cn1)NC(=O)[C@H](Cc1c[nH]cn1)NC(=O)[C@H](CC(C)C)NC(=O)[C@H](Cc1ccccc1)NC(=O)[C@H](CCC(=O)O)NC(=O)[C@H](C)NC(=O)[C@H](CC(C)C)NC(=O)[C@H](CCCNC(=N)N)NC(=O)[C@H](CCC(N)=O)NC(=O)[C@@H](NC(=O)[C@H](C)NC(=O)[C@@H]1CSSC[C@H](NC(=O)[C@H](Cc2c[nH]cn2)NC(=O)CC[C@H](NC(=O)CCCCCCCCCCCCCCCCCCC(=O)O)C(=O)O)C(=O)N[C@@H](CC(N)=O)C(=O)N[C@@H]([C@@H](C)O)C(=O)N[C@@H](C)C(=O)N[C@@H]([C@@H](C)O)C(=O)N1)[C@@H](C)O)C(=O)N[C@@H](CC(C)C)C(=O)N1CCC[C@H]1C(=O)N1CCC[C@H]1C(=O)N[C@H](C(=O)N[C@@H](CC(N)=O)C(=O)N[C@H](C(=O)NCC(=O)N[C@@H](CO)C(=O)N[C@@H](CC(N)=O)C(=O)N[C@H](C(=O)N1CCC[C@H]1C(N)=O)[C@@H](C)O)C(C)C)[C@@H](C)O [Example 84, N-alpha-[(S)-4-Carboxy-4-(19-carboxynonadecanoylamino)butyryl]-[His1,Glu14,His17,Pro37]-pramlintide] ({C20 diacid-γGlu}-HCNTATCATQRLAEFLHHSSNNFGPILPPTNVGSNTP-NH2; disulfide 2-7 (inferred))",Food intake reduction 0-24 h 3 nmol/kg (%),68%
same,Food intake reduction 24-48 h 3 nmol/kg (%),67%
"CC[C@H](C)[C@H](NC(=O)[C@@H]1CCCN1C(=O)CNC(=O)[C@H](Cc1ccccc1)NC(=O)[C@H](CC(N)=O)NC(=O)[C@H](CC(N)=O)NC(=O)[C@H](CO)NC(=O)[C@H](CO)NC(=O)[C@H](Cc1c[nH]cn1)NC(=O)[C@H](Cc1c[nH]cn1)NC(=O)[C@H](CC(C)C)NC(=O)[C@H](Cc1ccccc1)NC(=O)[C@H](CCC(=O)O)NC(=O)[C@H](C)NC(=O)[C@H](CC(C)C)NC(=O)[C@H](CCCNC(=N)N)NC(=O)[C@H](CCC(N)=O)NC(=O)[C@@H](NC(=O)[C@H](C)NC(=O)[C@@H]1CSSC[C@H](NC(=O)[C@H](Cc2c[nH]cn2)NC(=O)[C@H](Cc2c[nH]cn2)NC(=O)CC[C@H](NC(=O)CCCCCCCCCCCCCCCCCCC(=O)O)C(=O)O)C(=O)N[C@@H](CC(N)=O)C(=O)N[C@@H]([C@@H](C)O)C(=O)N[C@@H](C)C(=O)N[C@@H]([C@@H](C)O)C(=O)N1)[C@@H](C)O)C(=O)N[C@@H](CC(C)C)C(=O)N1CCC[C@H]1C(=O)N1CCC[C@H]1C(=O)N[C@H](C(=O)N[C@@H](CC(N)=O)C(=O)N[C@H](C(=O)NCC(=O)N[C@@H](CO)C(=O)N[C@@H](CC(N)=O)C(=O)N[C@H](C(=O)N[C@@H](Cc1ccc(O)cc1)C(N)=O)[C@@H](C)O)C(C)C)[C@@H](C)O [Example 17, N-alpha-[(S)-4-Carboxy-4-(19-carboxynonadecanoylamino)butyryl]-His-[His1,Glu14,His17]-pramlintide] ({C20 diacid-γGlu}-HHCNTATCATQRLAEFLHHSSNNFGPILPPTNVGSNTY-NH2; disulfide 3-8)",Food intake reduction 0-24 h 3 nmol/kg (%),40%
same,Food intake reduction 24-48 h 3 nmol/kg (%),22%
"CC[C@H](C)[C@H](NC(=O)[C@@H]1CCCN1C(=O)CNC(=O)[C@H](Cc1ccccc1)NC(=O)[C@H](CC(N)=O)NC(=O)[C@H](CC(N)=O)NC(=O)[C@H](CO)NC(=O)[C@H](CO)NC(=O)[C@H](Cc1c[nH]cn1)NC(=O)[C@H](Cc1c[nH]cn1)NC(=O)[C@H](CC(C)C)NC(=O)[C@H](Cc1ccccc1)NC(=O)[C@H](CCC(=O)O)NC(=O)[C@H](C)NC(=O)[C@H](CC(C)C)NC(=O)[C@H](CCCNC(=N)N)NC(=O)[C@H](CCC(N)=O)NC(=O)[C@@H](NC(=O)[C@H](C)NC(=O)[C@@H]1CSSC[C@H](NC(=O)CC[C@H](NC(=O)CCCCCCCCCCCCCCCCCCC(=O)O)C(=O)O)C(=O)N[C@@H](CC(N)=O)C(=O)N[C@@H]([C@@H](C)O)C(=O)N[C@@H](C)C(=O)N[C@@H]([C@@H](C)O)C(=O)N1)[C@@H](C)O)C(=O)N[C@@H](CC(C)C)C(=O)N1CCC[C@H]1C(=O)N1CCC[C@H]1C(=O)N[C@H](C(=O)N[C@@H](CC(N)=O)C(=O)N[C@H](C(=O)NCC(=O)N[C@@H](CO)C(=O)N[C@@H](CC(N)=O)C(=O)N[C@H](C(=O)N[C@@H](Cc1ccc(O)cc1)C(N)=O)[C@@H](C)O)C(C)C)[C@@H](C)O [Example 28, N-alpha-[(S)-4-Carboxy-4-(19-carboxynonadecanoylamino)butyryl]-[des1,Glu14,His17]-pramlintide] ({C20 diacid-γGlu}-CNTATCATQRLAEFLHHSSNNFGPILPPTNVGSNTY-NH2; disulfide 1-6)",Food intake reduction 0-24 h 3 nmol/kg (%),39%
same,Food intake reduction 24-48 h 3 nmol/kg (%),36%

# Reference: patent US8741836B2, “Polypeptides” (Novo Nordisk A/S, priority 2011, dated 2014)
